From ChEMBL document CHEMBL4265897, “Discovery of benzothiazole amides as potent antimycobacterial agents” (Bioorg Med Chem Lett, 2018)
≈ marks a conversion by molar mass, not a printed value. Calls of active or inactive are those of the source. The calls are words filed in the database; no cut-off is given here.

Tests used:
Mycobacterium avium = test: Antimycobacterial activity against Mycobacterium avium 101 by CLSI method; type: functional
[1] = tested on: Mycobacteroides abscessus; test: Antimycobacterial activity against Mycobacterium abscessus 103 by CLSI method; type: functional
[2] = tested on: Mycobacteroides abscessus; test: Antimycobacterial activity against Mycobacterium abscessus 79 by CLSI method; type: functional
[3] = tested on: Mycobacteroides abscessus; test: Antimycobacterial activity against Mycobacterium abscessus 1 by CLSI method; type: functional
Mus musculus = test: Toxicity in mouse assessed as abnormal behavior at 100 to 300 mg/kg, po administered as single dose; type: organism-based; settings: in vivo
[4] = tested on: Mycobacteroides abscessus; test: Antimycobacterial activity against Mycobacterium abscessus 21 by CLSI method; type: functional
Mycobacteroides chelonae = test: Antimycobacterial activity against Mycobacterium chelonae 93 by CLSI method; type: functional
[5] = tested on: Mycobacterium intracellulare; test: Antimycobacterial activity against Mycobacterium intracellulare 1956 by CLSI method; type: functional
[6] = tested on: Mycolicibacterium fortuitum; test: Antimycobacterial activity against Mycobacterium fortuitum 41 by CLSI method; type: functional
[7] = tested on: Mycobacteroides abscessus; test: Antimycobacterial activity against Mycobacterium massiliense 119 by CLSI method; type: functional, Mycobacterium abscessus subsp. massiliense
[8] = tested on: Mycolicibacterium peregrinum; test: Antimycobacterial activity against Mycobacterium peregrinum ATCC 700686 by CLSI method; type: functional
[9] = Solubility of the compound; type: physicochemical
RBCs = test: Hemolytic activity in RBC (unknown origin) at 128 ug/ml; type: ADME, cell-based; settings: erythrocyte
Cytochrome P450 2B6 = target: T1, Cytochrome P450 2B6 (Homo sapiens, UniProt P20813); test: Inhibition of CYP2B6 (unknown origin); type: ADME
T1 sequence (P20813 whole entry): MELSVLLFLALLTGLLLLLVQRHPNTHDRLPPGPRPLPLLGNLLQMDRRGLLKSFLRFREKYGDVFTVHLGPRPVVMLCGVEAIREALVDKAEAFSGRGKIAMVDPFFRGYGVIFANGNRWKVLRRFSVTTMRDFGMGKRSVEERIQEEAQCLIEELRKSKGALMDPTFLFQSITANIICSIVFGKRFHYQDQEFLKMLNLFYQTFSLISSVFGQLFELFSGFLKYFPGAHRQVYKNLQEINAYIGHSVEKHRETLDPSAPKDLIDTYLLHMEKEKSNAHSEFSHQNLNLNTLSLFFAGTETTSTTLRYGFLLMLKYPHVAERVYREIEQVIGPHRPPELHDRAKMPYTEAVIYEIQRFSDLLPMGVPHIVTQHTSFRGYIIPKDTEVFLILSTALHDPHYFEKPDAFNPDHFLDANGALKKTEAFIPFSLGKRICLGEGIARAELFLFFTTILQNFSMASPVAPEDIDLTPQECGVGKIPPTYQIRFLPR

Cytochrome P450 2C9 = Cytochrome P450 2C9 (Homo sapiens, UniProt P11712); test: Inhibition of CYP2C9 (unknown origin); type: ADME
Sequence of Cytochrome P450 2C9 (P11712 whole entry): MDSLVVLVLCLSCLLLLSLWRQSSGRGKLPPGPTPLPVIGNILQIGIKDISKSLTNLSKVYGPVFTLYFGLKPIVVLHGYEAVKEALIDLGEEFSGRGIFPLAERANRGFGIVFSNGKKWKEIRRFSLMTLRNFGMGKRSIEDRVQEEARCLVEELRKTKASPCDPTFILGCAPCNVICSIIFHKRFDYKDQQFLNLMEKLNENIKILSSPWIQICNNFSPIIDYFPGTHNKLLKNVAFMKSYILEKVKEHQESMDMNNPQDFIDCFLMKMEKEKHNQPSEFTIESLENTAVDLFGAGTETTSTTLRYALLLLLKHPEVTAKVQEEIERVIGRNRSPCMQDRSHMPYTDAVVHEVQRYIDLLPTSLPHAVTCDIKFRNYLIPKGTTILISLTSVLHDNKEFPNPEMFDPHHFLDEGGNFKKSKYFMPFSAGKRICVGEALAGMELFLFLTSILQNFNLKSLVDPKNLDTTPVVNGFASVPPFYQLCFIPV

[10] = tested on: Mycobacterium tuberculosis; test: Antimycobacterial activity against Mycobacterium tuberculosis H37Rv MC2 6206 by CLSI method; type: functional
Cytochrome P450 2C8 = target: T2, Cytochrome P450 2C8 (Homo sapiens, UniProt P10632); test: Inhibition of CYP2C8 (unknown origin); type: ADME
T2 sequence (P10632 whole entry): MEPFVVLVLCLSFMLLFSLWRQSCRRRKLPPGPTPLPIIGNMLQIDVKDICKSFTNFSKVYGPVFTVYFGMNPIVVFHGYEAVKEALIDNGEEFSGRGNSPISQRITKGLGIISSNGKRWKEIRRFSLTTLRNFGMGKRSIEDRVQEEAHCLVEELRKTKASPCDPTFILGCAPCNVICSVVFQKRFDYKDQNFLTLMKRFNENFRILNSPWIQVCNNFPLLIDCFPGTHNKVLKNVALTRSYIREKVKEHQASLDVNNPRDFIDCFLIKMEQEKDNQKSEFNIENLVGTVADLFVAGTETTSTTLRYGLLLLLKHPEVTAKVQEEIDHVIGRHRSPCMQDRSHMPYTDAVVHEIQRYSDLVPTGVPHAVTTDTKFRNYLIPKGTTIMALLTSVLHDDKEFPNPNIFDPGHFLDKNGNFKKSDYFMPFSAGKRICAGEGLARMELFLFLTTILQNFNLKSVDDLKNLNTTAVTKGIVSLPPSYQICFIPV

Cytochrome P450 2C19 = Cytochrome P450 2C19 (Homo sapiens, UniProt P33261); test: Inhibition of CYP2C19 (unknown origin); type: ADME
Sequence of Cytochrome P450 2C19 (P33261 whole entry): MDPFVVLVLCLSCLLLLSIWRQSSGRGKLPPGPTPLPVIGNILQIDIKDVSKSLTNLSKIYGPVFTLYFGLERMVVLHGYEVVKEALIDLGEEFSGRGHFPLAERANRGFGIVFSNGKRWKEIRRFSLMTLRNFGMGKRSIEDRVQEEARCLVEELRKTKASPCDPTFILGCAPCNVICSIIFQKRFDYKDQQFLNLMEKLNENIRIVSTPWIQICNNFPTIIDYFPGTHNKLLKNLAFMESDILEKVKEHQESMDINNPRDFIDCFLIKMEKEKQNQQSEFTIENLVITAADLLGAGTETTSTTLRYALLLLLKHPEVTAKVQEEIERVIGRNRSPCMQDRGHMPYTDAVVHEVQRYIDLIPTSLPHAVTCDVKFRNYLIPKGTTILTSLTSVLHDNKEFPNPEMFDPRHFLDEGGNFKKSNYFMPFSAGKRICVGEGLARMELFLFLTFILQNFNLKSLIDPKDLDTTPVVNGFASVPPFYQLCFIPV

Cytochrome P450 2D6 = Cytochrome P450 2D6 (Homo sapiens, UniProt P10635); test: Inhibition of CYP2D6 (unknown origin); type: ADME
Sequence of Cytochrome P450 2D6 (P10635 whole entry): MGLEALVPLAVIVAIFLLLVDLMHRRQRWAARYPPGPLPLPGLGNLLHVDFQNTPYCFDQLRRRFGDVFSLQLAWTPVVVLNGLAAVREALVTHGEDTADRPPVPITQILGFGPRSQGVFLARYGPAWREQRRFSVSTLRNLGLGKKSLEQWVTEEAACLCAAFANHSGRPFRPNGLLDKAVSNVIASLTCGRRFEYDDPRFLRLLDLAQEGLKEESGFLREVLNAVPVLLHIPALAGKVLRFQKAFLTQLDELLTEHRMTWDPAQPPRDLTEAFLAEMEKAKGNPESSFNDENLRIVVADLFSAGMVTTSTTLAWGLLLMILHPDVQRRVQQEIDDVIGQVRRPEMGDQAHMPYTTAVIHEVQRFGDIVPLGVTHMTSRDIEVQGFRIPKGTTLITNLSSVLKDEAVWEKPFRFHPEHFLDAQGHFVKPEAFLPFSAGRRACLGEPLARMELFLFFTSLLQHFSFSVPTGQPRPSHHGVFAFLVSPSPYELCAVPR

Cytochrome P450 3A4 [11] = target: T3, Cytochrome P450 3A4 (Homo sapiens, UniProt P08684); test: Inhibition of CYP3A4 (unknown origin) using testosterone as substrate; type: ADME
T3 sequence (P08684 whole entry): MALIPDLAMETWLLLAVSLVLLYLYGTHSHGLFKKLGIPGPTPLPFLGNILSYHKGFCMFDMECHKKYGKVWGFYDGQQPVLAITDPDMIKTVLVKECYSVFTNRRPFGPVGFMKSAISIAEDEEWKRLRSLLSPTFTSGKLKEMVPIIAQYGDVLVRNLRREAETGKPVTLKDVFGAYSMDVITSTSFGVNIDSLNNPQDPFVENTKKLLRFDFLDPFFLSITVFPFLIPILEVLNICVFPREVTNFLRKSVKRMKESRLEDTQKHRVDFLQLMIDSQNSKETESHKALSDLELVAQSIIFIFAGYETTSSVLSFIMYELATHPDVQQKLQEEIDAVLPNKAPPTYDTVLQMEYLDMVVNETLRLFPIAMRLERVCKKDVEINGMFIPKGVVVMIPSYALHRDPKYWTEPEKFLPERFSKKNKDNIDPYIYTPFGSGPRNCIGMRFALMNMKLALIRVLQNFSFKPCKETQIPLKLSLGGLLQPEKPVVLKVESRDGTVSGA

[12] = Oral bioavailability in mouse at 100 mg/kg; type: ADME, organism-based; settings: in vivo
[13] = Protein binding in human serum; type: ADME, cell-free; settings: read-out: PB
[14] = Clearance in mouse plasma at 10 mg/kg, iv; type: ADME, organism-based
Cytochrome P450 3A4 [15] = target: T3, Cytochrome P450 3A4; test: Inhibition of CYP3A4 (unknown origin) using midazolam as substrate; type: ADME
CYP2B6 = target: T4, CYP2B6 (Homo sapiens, UniProt P20813); test: Inhibition of CYP2B6 (unknown origin) at 10 uM; type: ADME
T4 sequence (P20813 whole entry): T1 sequence (P20813 whole entry)

CYP3A4 = CYP3A4 (Homo sapiens, UniProt P08684); test: Inhibition of CYP3A4 (unknown origin) at 10 uM; type: ADME
Sequence of CYP3A4 (P08684 whole entry): as above

[16] = tested on: Mycobacteroides abscessus; test: Antimycobacterial activity against Mycobacterium abscessus ATCC 19977 by CLSI method; type: functional
HepG2 = test: Cytotoxicity against human HepG2 cells; type: cell-based
[17] = tested on: Mycobacteroides abscessus; test: Antimycobacterial activity against Mycobacterium abscessus assessed as reduction in viable colony forming unit after 5 days by time-kill assay relative to control; type: functional
[18] = tested on: Mycobacteroides abscessus; test: Bacteriostatic activity against Mycobacterium abscessus assessed as reduction in viable colony forming unit after 3 days by time-kill assay; type: functional, organism-based

Row | SMILES | MIC (Mycobacterium avium) | MIC [1] | MIC [2] | MIC [3] | MIC [4] | MIC (Mycobacteroides chelonae) | MIC [5] | MIC [6] | MIC [7] | MIC [8] | solubility [9] | Activity (RBCs) | IC50 (Cytochrome P450 2B6) | IC50 (Cytochrome P450 2C9) | MIC [10] | IC50 (Cytochrome P450 2C8) | IC50 (Cytochrome P450 2C19) | IC50 (Cytochrome P450 2D6) | IC50 (Cytochrome P450 3A4 [11]) | fraction unbound [13] | further results
1 | CC1CC(C(=O)Nc2nc3c(F)cc(F)cc3s2)CC(C)(C)C1 (stereo unspecified) | 64 µg/mL (≈ 189 µM) | 0.5 µg/mL (≈ 1.48 µM) | 0.5 µg/mL (≈ 1.48 µM) | 1 µg/mL (≈ 2.95 µM) | 0.5 µg/mL (≈ 1.48 µM) | 0.25 µg/mL (≈ 0.739 µM) | 4 µg/mL (≈ 11.8 µM) | 0.25 µg/mL (≈ 0.739 µM) | 0.5 µg/mL (≈ 1.48 µM) | 0.2 µg/mL (≈ 0.591 µM) |  |  |  |  |  |  |  |  |  |  | Activity (Mus musculus): Non-Toxic
2 | CC1CC(C)CC(C(=O)Nc2nc3ccc(C(F)(F)F)cc3s2)C1 (stereo unspecified) | > 64 µg/mL | 0.25 µg/mL (≈ 0.701 µM) | 2 µg/mL (≈ 5.61 µM) | 2 µg/mL (≈ 5.61 µM) | 1 µg/mL (≈ 2.81 µM) | 1 µg/mL (≈ 2.81 µM) | > 64 µg/mL | 1 µg/mL (≈ 2.81 µM) | 0.5 µg/mL (≈ 1.4 µM) | 0.25 µg/mL (≈ 0.701 µM) | Insoluble | Non-Toxic | > 20 µM | > 20 µM | 4 µg/mL (≈ 11.2 µM) | > 20 µM | > 20 µM | 1400 nM | > 20 µM | < 0.01 | bioavailability [12]: 53%; clearance [14]: 28.3 mL/min/kg; IC50 (Cytochrome P450 3A4 [15]): > 20 µM
3 | CC12CCCC(C(=O)Nc3nc4cc(Cl)cc(Cl)c4s3)(CCC1)C2 | 2 µg/mL (≈ 5.22 µM) | 0.03 µg/mL (≈ 0.0783 µM) | 0.03 µg/mL (≈ 0.0783 µM) | 0.06 µg/mL (≈ 0.157 µM) | 0.03 µg/mL (≈ 0.0783 µM) | 0.03 µg/mL (≈ 0.0783 µM) | 2 µg/mL (≈ 5.22 µM) | 0.06 µg/mL (≈ 0.157 µM) | 0.03 µg/mL (≈ 0.0783 µM) | 0.03 µg/mL (≈ 0.0783 µM) |  |  |  |  | ≤ 0.12 µg/mL |  |  |  |  |  | inhibition at 10 µM (CYP2B6): > 50%; inhibition at 10 µM (CYP3A4): > 50%
4 | O=C(Nc1nc2ccc(OC(F)(F)F)cc2s1)C1CCCCC1 | > 64 µg/mL | > 64 µg/mL | > 64 µg/mL | > 64 µg/mL | 16 µg/mL (≈ 46.5 µM) | > 64 µg/mL | > 64 µg/mL | > 64 µg/mL | > 64 µg/mL | > 64 µg/mL |  |  |  |  | 64 µg/mL (≈ 186 µM) |  |  |  |  |  | MIC [16]: 32 µg/mL (≈ 92.9 µM)
5 | CC1CC(C(=O)Nc2nc3ccc(Cl)cc3s2)CC(C)(C)C1 (stereo unspecified) | 16 µg/mL (≈ 47.5 µM) | 0.25 µg/mL (≈ 0.742 µM) | 0.25 µg/mL (≈ 0.742 µM) | 0.5 µg/mL (≈ 1.48 µM) | 0.25 µg/mL (≈ 0.742 µM) | 0.25 µg/mL (≈ 0.742 µM) | 4 µg/mL (≈ 11.9 µM) | 0.25 µg/mL (≈ 0.742 µM) | 0.5 µg/mL (≈ 1.48 µM) | 0.12 µg/mL (≈ 0.356 µM) | Insoluble | Non-Toxic | 14.9 µM | > 20 µM | 4 µg/mL (≈ 11.9 µM) | > 20 µM | 15.5 µM | 200 nM | > 20 µM | < 0.01 | IC50 (Cytochrome P450 3A4 [15]): > 20 µM
6 | CC1CC(C(=O)Nc2nc3ccc(OC(F)(F)F)cc3s2)CC(C)(C)C1 (stereo unspecified) | > 64 µg/mL | 0.25 µg/mL (≈ 0.647 µM) | 0.25 µg/mL (≈ 0.647 µM) | 0.5 µg/mL (≈ 1.29 µM) | 0.25 µg/mL (≈ 0.647 µM) | 0.12 µg/mL (≈ 0.311 µM) | > 64 µg/mL | 1 µg/mL (≈ 2.59 µM) | 0.25 µg/mL (≈ 0.647 µM) | 0.25 µg/mL (≈ 0.647 µM) | Insoluble | Non-Toxic | > 20 µM | > 20 µM |  | > 20 µM | > 20 µM | > 20000 nM | > 20 µM | < 0.01 | IC50 (HepG2): > 100 µM; IC50 (Cytochrome P450 3A4 [15]): > 20 µM
7 | CC12CCCC(C(=O)Nc3nc4ccc(OC(F)(F)F)cc4s3)(CCC1)C2 | 2 µg/mL (≈ 5.02 µM) | 0.12 µg/mL (≈ 0.301 µM) | 0.06 µg/mL (≈ 0.151 µM) | 0.06 µg/mL (≈ 0.151 µM) | 0.06 µg/mL (≈ 0.151 µM) | 0.06 µg/mL (≈ 0.151 µM) | 2 µg/mL (≈ 5.02 µM) | 0.5 µg/mL (≈ 1.25 µM) | 0.06 µg/mL (≈ 0.151 µM) | 0.06 µg/mL (≈ 0.151 µM) |  |  |  |  | 1 µg/mL (≈ 2.51 µM) |  |  |  |  |  | inhibition at 10 µM (CYP2B6): > 50%; inhibition at 10 µM (CYP3A4): > 50%
8 | CC12CC3CC(C)(C1)CC(C(=O)Nc1nc4ccc(OC(F)(F)F)cc4s1)(C3)C2 | 2 µg/mL (≈ 4.71 µM) | 0.25 µg/mL (≈ 0.589 µM) | 0.25 µg/mL (≈ 0.589 µM) | 0.25 µg/mL (≈ 0.589 µM) | 0.25 µg/mL (≈ 0.589 µM) | 0.25 µg/mL (≈ 0.589 µM) | 1 µg/mL (≈ 2.36 µM) | 0.25 µg/mL (≈ 0.589 µM) | 0.25 µg/mL (≈ 0.589 µM) | 0.12 µg/mL (≈ 0.283 µM) |  |  |  |  | 1 µg/mL (≈ 2.36 µM) |  |  |  |  |  | Activity [17]: 2 deltalog10CFU; Activity [18]: Active; MIC [16]: 0.25 µg/mL (≈ 0.589 µM)
9 | CC1CC(C(=O)Nc2nc3ccc(Br)cc3s2)CC(C)(C)C1 (stereo unspecified) | > 64 µg/mL | 0.25 µg/mL (≈ 0.656 µM) | 0.5 µg/mL (≈ 1.31 µM) | 1 µg/mL (≈ 2.62 µM) | 0.5 µg/mL (≈ 1.31 µM) | 0.5 µg/mL (≈ 1.31 µM) | > 64 µg/mL | 0.5 µg/mL (≈ 1.31 µM) | 0.5 µg/mL (≈ 1.31 µM) | 0.12 µg/mL (≈ 0.315 µM) | Insoluble | Non-Toxic | 12.8 µM | > 20 µM | 2 µg/mL (≈ 5.24 µM) | > 20 µM | 12.7 µM | 1600 nM | > 20 µM | < 0.01 | bioavailability [12]: 75%; clearance [14]: 25 mL/min/kg; IC50 (Cytochrome P450 3A4 [15]): > 20 µM
